# Assay results reported in patent publication US20110142884A1, “Materials and Methods for Making Improved Micelle Compositions” (The Board of Trustees of the University of Illinois, priority 2002, published 2011).
# Experiments:
# [1] = tested on: human breast cancer cells (MCF-7); assay: In vitro cytotoxic activity, sulforhodamine B; conditions: three days incubation
# Experimental: The cytotoxic activity of paclitaxel in SSMM, SSM and dimethyl sulfoxide (10% DMSO) was determined against human breast cancer cells (MCF-7; ATCC # HTB-22). The cell line was maintained in RPMI 1640 medium containing 10% fetal bovine serum and 1.0% antibiotics (penicillin and streptomycin), in a 5% carbon dioxide humidified atmosphere at 37° C. Optimum solutions of paclitaxel-SSM and paclitaxel-SSMM chosen from the solubilization studies were used as the test solutions. A 10% dimethyl sulfoxide (DMSO) solution of paclitaxel was also tested as a control. […]
# Briefly, samples were prepared as described earlier and serial dilutions were made to obtain paclitaxel concentrations ranging from 0.0013 to 4 μg/ml using the respective solvent that is either HEPES buffer or 10% DMSO. […] Each sample was evaluated in triplicate. […] The optical density was then read at 515 nm. The optical density readings obtained for the solvent controls were used to define 100% growth after correcting for the value obtained for the zero day control. These values were then expressed as a % survival and ED50 values calculated using non-linear regression analysis (percent survival versus concentration).
# All the data are expressed as means±standard deviation (SD). […] ED50 values were calculated for each formulation and compared statistically using one-way analysis of variance. […]
# [2] = physchem; conditions: pH 7.4, aqueous with cosolvent or surfactant or cyclodextrin, thermodynamic from solid, paclitaxel solubilized by SSMM
# Experimental: Solubilization potential of both micelle compositions for a model drug was measured by HPLC after separation of the unincorporated drug.
# Excess drug was removed by centrifugation and the supernatant was analyzed by HPLC. […] HPLC eluent was measured with adsorption at 254 nm.
# According to this example, micelle compositions of the invention were further characterized. Particularly, the physiochemical properties of sterically stabilized micelles prepared with DSPE conjugated to molecular weight 2000, 3000, and 5000 PEG were analyzed. The critical micelle concentration (CMC) of phospholipids was determined at pH 7.4 and 25° C. using a water-insoluble fluorescent probe (1,6-diphenyl-1,3,5-hexatriene). Micellar size was determined by quasi-elastic light scattering.
# The solvent was then removed by vacuum rotary evaporation under a stream of argon to form a dry film. This dry film was further dried under vacuum overnight to remove any traces of remaining solvent. The dried film was rehydrated with isotonic 0.01M HEPES buffer, pH 7.4. The solution was then flushed with argon, sealed and equilibrated for 12 h at room temperature. The unsolubilized excess paclitaxel was removed by centrifugation at 13,000 g for 5 min to obtain a clear dispersion.
# The solubilization potentials of SSMM and SSM for paclitaxel were determined by RP-HPLC. The clear aqueous dispersion was diluted with methanol. 20 μl of each sample was injected at least three times into a μBondapak C-18 column, 3.9 mm×30 cm (Waters, Milford, Mass.) equipped with a C18 column guard. The column was eluted with acetonitrile/water (60:40) at 1.0 ml/min (Waters 600). Detection was by UV absorption measurement at 227 nm (Waters 490). Peak areas were calculated by interfacing the detector to an electronic integrator (Hewlett Packard). The drug concentration was calculated from standard curves.
smiles,measurement,setting,value
CC(=O)O[C@H]1C(=O)[C@@]2(C)[C@H]([C@H](OC(=O)c3ccccc3)[C@]3(O)C[C@H](OC(=O)[C@H](O)[C@@H](NC(=O)c4ccccc4)c4ccccc4)C(C)=C1C3(C)C)[C@]1(OC(C)=O)CO[C@@H]1C[C@@H]2O [paclitaxel],cytotoxic activity against MCF-7 cells,[1],comparable cytotoxic activities
same,solubility at 12 h,[2],1.32 ± 0.048 mg/mL
